Patent US11660306B2, “Treatment of Rett syndrome” (Cold Spring Harbor Laboratory, priority 2014, dated 2023)

Key:
[1] = target: PTP1B405 (Homo sapiens, UniProt P18031); assay: Triterpene inhibition of PTP1B405 (Table 2); type: biochemical
[2] = target: PTP1B321 (Homo sapiens, UniProt P18031); assay: Triterpene inhibition of PTP1B321 (Table 2); type: biochemical
[3] = tested on: PTP1B; assay: Reversibility of PTP1B inhibition by triterpenes (Table 2); type: biochemical
[4] = target: PTP1B (Homo sapiens (Human), UniProt P18031); assay: PTP1B phosphatase inhibition; type: biochemical
Procedure: (§1) In this example, in order to determine the significance of the elevated PTP1B levels in animal models of Rett syndrome, the effects of small molecule inhibitors of the phosphatase were tested. Using para-Nitro Phenyl Phosphate (pNPP) as substrate, PTP1B inhibition by CPT157633 was studied (FIG. 13A). […] To obtain structural insights into the PTP1B-CPT157633 interaction, both biomolecular NMR spectroscopy and X-ray crystallography were used. Residues 1-301 from the catalytic domain of PTP1B were expressed in D2O-based medium and 2D [^1H,^15N] TROSY spectra were recorded in the absence and presence of CPT157633. […] This was confirmed by the crystal structure of the PTP1B:CTP157633 complex, which illustrated a non-covalent interaction. Electrostatic interactions made by the compound to critical active site residues are highlighted in FIG. 13G.
(§2) A second inhibitor of PTP1B that exerts its effect on the enzyme by a different mechanism was characterized. […] It inhibited PTP1B with selectivity compared to a panel of eight phosphatases investigated.

[5] = tested on: panel of six PTPs and two dual-specificity phosphatases; assay: Specificity against a panel of phosphatases; type: biochemical
Procedure: as §1, §2

[6] = tested on: Mecp2−/y mice; assay: Survival of Mecp2-null male mice; conditions: for survival (in words): Mecp2-null male mice, 5 mg/kg
[7] = tested on: Mecp2−/y mice; assay: Glucose tolerance test in Mecp2−/y male mice; conditions: 5 mg/Kg, two weeks after treatment
[8] = tested on: Mecp2 mutant mice; assay: Anti-diabetic small molecules in Mecp2 mutant mice (FIG. 6D)

PTP1B (Homo sapiens (Human), UniProt P18031), sequence (P18031 whole entry, the tested form may be a part): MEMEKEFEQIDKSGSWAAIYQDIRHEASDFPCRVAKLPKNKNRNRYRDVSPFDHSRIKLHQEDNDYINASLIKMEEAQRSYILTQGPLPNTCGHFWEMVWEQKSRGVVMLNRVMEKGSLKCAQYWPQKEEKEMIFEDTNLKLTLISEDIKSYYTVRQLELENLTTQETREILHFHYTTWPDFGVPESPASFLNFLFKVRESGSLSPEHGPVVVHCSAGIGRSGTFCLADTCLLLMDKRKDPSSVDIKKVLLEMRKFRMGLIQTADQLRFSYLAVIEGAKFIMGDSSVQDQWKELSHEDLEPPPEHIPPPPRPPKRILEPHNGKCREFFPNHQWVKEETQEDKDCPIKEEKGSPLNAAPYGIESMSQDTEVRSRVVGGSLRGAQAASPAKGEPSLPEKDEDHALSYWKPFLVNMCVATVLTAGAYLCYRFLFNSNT

| SMILES | Ki [1] [µM] | Ki [2] [µM] | Reversibility [3] | further results |
| --- | --- | --- | --- | --- |
| C[C@H]1[C@H](C)CC[C@]2(C(=O)O)CC[C@]3(C)C(=CC[C@@H]4[C@@]5(C)C[C@@H](O)[C@H](O)C(C)(C)[C@@H]5CC[C@]43C)[C@H]12 | 1.5 | 3 | Irreversible | – |
| C[C@H]1CC[C@@]2(OC1)O[C@H]1C[C@H]3[C@@H]4CC=C5C[C@@H](O)CC[C@]5(C)[C@H]4CC[C@]3(C)[C@H]1[C@@H]2C | 25 | 36 | Reversible | – |
| CC(C)[C@H]1CC[C@]2(C)[C@H]3CC[C@@H]4[C@@]5(C)CCCC(C)(C)[C@@H]5CC[C@@]4(C)[C@]3(C)CC[C@@H]12 | 5.7 | 9 | Reversible | – |
| C[C@@H]1CC[C@]2(C(=O)NCCCCCCCCCCC(=O)N[C@@H](Cc3ccccc3)C(=O)O)CC[C@]3(C)C(=CCC4[C@@]5(C)CC[C@H](O)C(C)(C)C5CC[C@]43C)C2[C@H]1C (stereo partly drawn) [UA0713] | – | – | – | mode of inhibition of PTP1B [4]: non-competitive; Ki ([4]; substrate not stated): 0.15 µM; effect against phosphatase panel compared to PTP1B [5]: selectivity; survival (in words) [6]: improved the survival; increase in survival ([6]; Mecp2−/y male mice, 5 mg/Kg, versus saline): 2 fold; median life-span ([6]; Mecp2−/y male mice, 5 mg/Kg, saline 40 days): 95 days; glucose intolerance [7]: markedly reduced |
| COC(=O)[C@]1(C)CC[C@]2(C)CC[C@]3(C)C4=CC=C5C(=CC(=O)C(O)=C5C)[C@]4(C)CC[C@@]3(C)[C@@H]2C1 | 8 | 10 | Irreversible | – |
| C[C@H]1[C@H](C)CC[C@]2(C)CC[C@]3(C)C(=CC[C@@H]4[C@@]5(C)CC[C@H](O)C(C)(C)[C@@H]5CC[C@]43C)[C@H]12 | 4 | 6 | Irreversible | – |
| CC1(C)CC[C@]2(C)CC[C@]3(C)C(=CC[C@@H]4[C@@]5(C)CC[C@@H](O)[C@](C)(C(=O)O)[C@@H]5CC[C@]43C)[C@@H]2C1 | 4 | 6 | Reversible | – |
| CC1CCC23CCC4(C)C5(C)CCC6C(C)(C)C(=O)CCC6(C)C5C=CC4(OC2)C3C1C (stereo not drawn) | 11 | 13 | Reversible | – |
| C=C(C)C1CC[C@]2(C(=O)O)CC[C@]3(C)[C@H](CC[C@@H]4[C@@]5(C)CC[C@H](O)C(C)(C)[C@@H]5CC[C@]43C)[C@@H]12 (stereo partly drawn) | 0.7 | 3 | Irreversible | – |
| CC1=C(O)C(=O)C=C2C1=CC=C1[C@@]2(C)CC[C@@]2(C)[C@@H]3C[C@](C)(C(=O)O)CC[C@]3(C)CC[C@]12C | 10 | 10 | Irreversible | – |
| CC1(C)CC[C@]2(C(=O)O)CC[C@]3(C)C(=CCC4[C@@]5(C)C[C@@H](O)[C@H](O)C(C)(C)[C@@H]5CC[C@]43C)[C@@H]2C1 (stereo partly drawn) | 5.7 | 10 | Reversible | – |
| CC1(C)CC[C@]2(C(=O)O)CC[C@]3(C)C(=CC[C@@H]4[C@@]5(C)CC[C@H](O)C(C)(C)[C@@H]5CC[C@]43C)[C@@H]2C1 | – | – | Reversible | – |
| C[C@H]1[C@H](C)CC[C@]2(CO)CC[C@]3(C)C(=CC[C@@H]4[C@@]5(C)CC[C@H](O)C(C)(C)[C@@H]5CC[C@]43C)[C@H]12 | – | – | Reversible | – |
| C=C(C)[C@@H]1CC[C@]2(CO)CC[C@]3(C)[C@H](CC[C@@H]4[C@@]5(C)CC[C@H](O)C(C)(C)[C@@H]5CC[C@]43C)[C@@H]12 | 2 | 3 | Reversible | – |
| CC1(C)CC[C@]2(C)CC=C3C(C)(CC[C@@H]4[C@@]5(C)CC[C@H](O)C(C)(C)[C@@H]5CC[C@@]34C)[C@@H]2C1 (stereo partly drawn) | 5 | 8 | Reversible | – |
| CN(C)C(=N)N=C(N)N [metformin] | – | – | – | effectiveness compared with PTP1B inhibitors [8]: none of the three inhibitors were as effective as PTP1B inhibitors |

| SMILES | Ki [1] [µM] | Ki [2] [µM] | Reversibility [3] | further results |
| --- | --- | --- | --- | --- |
| CN(CCOc1ccc(CC2SC(=O)NC2=O)cc1)c1ccccn1 (stereo not drawn) [rosiglitazone] | – | – | – | effectiveness compared with PTP1B inhibitors [8]: none of the three inhibitors were as effective as PTP1B inhibitors |
| C[C@H]1[C@H](C)CC[C@]2(C(=O)O)CC[C@]3(C)C(=CC[C@@H]4[C@@]5(C)CC[C@H](O)C(C)(C)C5CC[C@]43C)[C@H]12 (stereo partly drawn) | – | – | Reversible | – |
| CC1(C)CC[C@]2(C)CC[C@]3(C)[C@H](CC[C@@H]4[C@@]5(C)CCCC(C)(C)[C@@H]5CC[C@]43C)[C@@H]2C1 | 9 | 15 | Reversible | – |
| C[C@H]1C(=O)CC[C@H]2[C@]1(C)CC[C@]13C[C@@]14CC[C@@]1(C)CCC(C)(C)C[C@]15C[C@]54CC[C@@]23C | 2 | 4 | Reversible | – |
| NC(=O)c1ncn([C@@H]2O[C@H](CO)[C@@H](O)[C@H]2O)c1N [AICAR] | – | – | – | effectiveness compared with PTP1B inhibitors [8]: none of the three inhibitors were as effective as PTP1B inhibitors |
| C=C(C)[C@@H]1CC[C@]2(C(=O)O)CC[C@]3(C)[C@H](CC[C@@H]4[C@@]5(C)CC[C@H](OC(=O)CC(C)(C)C(=O)O)C(C)(C)[C@@H]5CC[C@]43C)[C@@H]12 | 4.4 | 7 | Irreversible | – |
| CC1(C)C=C2[C@H]3CC[C@@H]4[C@@]5(C)CCC(=O)C(C)(C)[C@@H]5CC[C@@]4(C)[C@]3(C)CC[C@@]2(C(=O)O)CC1 | 5 | 7 | Reversible | – |
| CC1(C)CC[C@]2(C(=O)O)CC[C@]3(C)C(=CC[C@@H]4[C@@]5(C)CC[C@H](O)[C@@](C)(CO)[C@@H]5CC[C@]43C)[C@@H]2C1 | 2 | 3.6 | Reversible | – |
| C=C(C)[C@@H]1CC[C@]2(C)CC[C@]3(C)[C@H](CC[C@@H]4[C@@]5(C)CC[C@H](O)C(C)(C)[C@@H]5CC[C@]43C)[C@@H]12 | 1.5 | 2.5 | Reversible | – |
| COC[C@]12CC[C@@H](C)[C@H](C)[C@H]1[C@@]1(O)C=C[C@@H]3[C@@]4(C)CCC(=O)C(C)(C)[C@@H]4CC[C@@]3(C)[C@]1(C)CC2 | 15 | 15 | Reversible | – |
| CC1(C)[C@@H](OC(=O)CCC(=O)O)CC[C@]2(C)[C@H]3C(=O)C=C4[C@@H]5C[C@@](C)(C(=O)O)CC[C@]5(C)CC[C@@]4(C)[C@]3(C)CC[C@@H]12 | 5 | 7 | Reversible | – |
| CC1(C)CC[C@]2(C(=O)O)CC[C@]3(C)C(=CC[C@@H]4[C@@]5(C)C[C@@H](O)[C@H](O)[C@@](C)(CO)[C@@H]5CC[C@]43C)[C@@H]2C1 | 7 | 8.3 | Reversible | – |
| CC/C=C/C(C)(O)OCC1(C)C(=O)CCC2(C)C1CCC1(C)C2CCC2C3C(C)C(C)CCC3(C)CCC21C (stereo not drawn) | 22 | 18 | Reversible | – |
| CC1(C)[C@@H](O)CC[C@]2(C)[C@H]3C(=O)C=C4[C@@H]5C[C@@](C)(C(=O)O)CC[C@]5(C)CC[C@@]4(C)[C@]3(C)CC[C@@H]12 | – | – | Reversible | – |
| C[C@@H]1CC[C@]2(C(=O)O)CC[C@]3(C)C(=CCC4[C@@]5(C)CC[C@H](O)C(C)(C)C5CC[C@]43C)C2[C@H]1C (stereo partly drawn) [UA001, ursolic acid, reference compound] | – | – | – | survival (in words) [6]: improved the survival |
| CC1(C)CCC[C@](C)([C@H]2CC[C@]3(C)[C@@H]2[C@H](O)C[C@@H]2[C@@]4(C)CC[C@H](O)C(C)(C)[C@@H]4[C@H](O)C[C@]23C)O1 | 10 | 14 | Reversible | – |
